How the values were obtained:
[1] = tested on: MDA-MB-468; assay: CellTiter-Glo cell viability assay; type: cell-based; details: for IC50: Homo sapiens, MDA-MB-468, BREAST, TNBC, 72 hours
Method in brief: (§1)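 Cells were seeded at 2.5×10^3–5×10^3 per well, grown 24 h in growth media, then exposed to compound for 72 h. Viable cells were quantified by ATP luminescence (CellTiter-Glo, 37° C), and IC50 was fitted from % cell growth relative to vehicle.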

[2] = tested on: H460; assay: CellTiter-Glo cell viability assay; type: cell-based; details: for IC50: Homo sapiens, NCI-H460, H460, LUNG, NSCLC, 72 hours
Method in brief: as §1

[3] = tested on: RXF-393; assay: CellTiter-Glo cell viability assay; type: cell-based; details: for IC50: Homo sapiens, RXF-393, RENAL, RCC, 72 hours
Method in brief: as §1

[4] = tested on: N87; assay: CellTiter-Glo cell viability assay; type: cell-based; details: for IC50: N87, GASTRIC, Carcinoma, 72 hours
Method in brief: as §1

[5] = tested on: OCI-Ly3; assay: CellTiter-Glo cell viability assay; type: cell-based; details: for IC50: Homo sapiens, OCI-Ly3, HEMATOPIETIC, DLBCL, 72 hours
Method in brief: as §1

[6] = tested on: Hs852T; assay: CellTiter-Glo cell viability assay; type: cell-based; details: for IC50: Hs852T, MELANOMA, 72 hours
Method in brief: as §1

[7] = tested on: MDA-MB-157; assay: CellTiter-Glo cell viability assay; type: cell-based; details: for IC50: Homo sapiens, MDA-MB-157, BREAST, Medullary Carcinoma, 72 hours
Method in brief: as §1

[8] = tested on: ACHN; assay: CellTiter-Glo cell viability assay; type: cell-based; details: for IC50: Homo sapiens, ACHN, RENAL, RCC, 72 hours
Method in brief: as §1

[9] = tested on: H23; assay: CellTiter-Glo cell viability assay; type: cell-based; details: for IC50: Homo sapiens, NCI-H23, H23, LUNG, NSCLC, 72 hours
Method in brief: as §1

[10] = tested on: Raji; assay: CellTiter-Glo cell viability assay; type: cell-based; details: for IC50: Homo sapiens, Raji, HEMATOPIETIC, Burkitt’s, 72 hours
Method in brief: as §1

[11] = tested on: MM1.S; assay: CellTiter-Glo cell viability assay; type: cell-based; details: for IC50: Homo sapiens, MM1.S, HEMATOPIETIC, MM, 72 hours
Method in brief: as §1

[12] = tested on: MDA-MB-231; assay: CellTiter-Glo cell viability assay; type: cell-based; details: for IC50: Homo sapiens, MDA-MB-231, BREAST, TNBC, 72 hours
Method in brief: as §1

[13] = tested on: SN12CCP; assay: CellTiter-Glo cell viability assay; type: cell-based; details: for IC50: SN12CCP, RENAL, RCC, 72 hours
Method in brief: as §1

[14] = tested on: MOLM-13; assay: CellTiter-Glo cell viability assay; type: cell-based; details: for IC50: Homo sapiens, MOLM-13, HEMATOPIETIC, AML, 72 hours
Method in brief: as §1

[15] = tested on: FaDu; assay: CellTiter-Glo cell viability assay; type: cell-based; details: for IC50: Homo sapiens, FaDu, H&N SQUAMOUS CELL, Pharynx, 72 hours
Method in brief: as §1

[16] = tested on: DOHH-2; assay: CellTiter-Glo cell viability assay; type: cell-based; details: for IC50: Homo sapiens, DOHH-2, HEMATOPIETIC, Lymphoma, 72 hours
Method in brief: as §1

[17] = tested on: SiHa; assay: CellTiter-Glo cell viability assay; type: cell-based; details: for IC50: Homo sapiens, SiHa, CERVICAL-SQUAMOUS CELL, 72 hours
Method in brief: as §1

[18] = tested on: MeWo; assay: CellTiter-Glo cell viability assay; type: cell-based; details: for IC50: Homo sapiens, MeWo, MELANOMA, LN Met, 72 hours
Method in brief: as §1

[19] = tested on: OAW28; assay: CellTiter-Glo cell viability assay; type: cell-based; details: for IC50: Homo sapiens, OAW-28, OAW28, OVARIAN, ovarian cystadenocarcinoma, 72 hours
Method in brief: as §1

[20] = tested on: A375; assay: CellTiter-Glo cell viability assay; type: cell-based; details: for IC50: Homo sapiens, A-375, A375, MELANOMA, Malignant Melanoma, 72 hours
Method in brief: as §1

[21] = target: T1, HDAC11 (Homo sapiens, UniProt Q96DB2); assay: Inhibition of HDAC enzymes, 12-point concentration-response; type: biochemical
T1 construct: made in house
Experimental: (§2) Compounds were tested in a 12-point concentration-response format against 11 HDAC enzymes as outlined in Table 2A. Test compounds were diluted in 100% DMSO using 3-fold dilution steps. The final compound concentration in the assay ranged from 100 μM to 0.565 nM or as requested. Compounds were tested in a single well for each dilution, and the final concentration of DMSO in all assays was kept at 1%. Reference compounds were tested in an identical manner.

[22] = target: T2, HDAC2 (Homo sapiens, UniProt Q92769); assay: as above; type: biochemical
T2 construct: purchased BPS 50002
Experimental: as §2

[23] = target: T3, HDAC8 (Homo sapiens, UniProt Q9BY41); assay: as above; type: biochemical
T3 construct: purchased BPS 50008
Experimental: as §2

T3 sequence (Q9BY41 whole entry): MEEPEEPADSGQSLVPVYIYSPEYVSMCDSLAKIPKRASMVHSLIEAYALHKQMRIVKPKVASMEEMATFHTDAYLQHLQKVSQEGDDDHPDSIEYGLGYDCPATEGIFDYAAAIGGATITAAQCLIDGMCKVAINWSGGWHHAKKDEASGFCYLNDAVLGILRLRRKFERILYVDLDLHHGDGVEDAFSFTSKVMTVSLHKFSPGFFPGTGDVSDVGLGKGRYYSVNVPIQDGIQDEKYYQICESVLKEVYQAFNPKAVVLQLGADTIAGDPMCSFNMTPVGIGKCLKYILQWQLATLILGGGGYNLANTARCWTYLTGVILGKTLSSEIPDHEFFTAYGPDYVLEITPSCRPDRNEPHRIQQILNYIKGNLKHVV
T1 sequence (Q96DB2 whole entry, species assumed): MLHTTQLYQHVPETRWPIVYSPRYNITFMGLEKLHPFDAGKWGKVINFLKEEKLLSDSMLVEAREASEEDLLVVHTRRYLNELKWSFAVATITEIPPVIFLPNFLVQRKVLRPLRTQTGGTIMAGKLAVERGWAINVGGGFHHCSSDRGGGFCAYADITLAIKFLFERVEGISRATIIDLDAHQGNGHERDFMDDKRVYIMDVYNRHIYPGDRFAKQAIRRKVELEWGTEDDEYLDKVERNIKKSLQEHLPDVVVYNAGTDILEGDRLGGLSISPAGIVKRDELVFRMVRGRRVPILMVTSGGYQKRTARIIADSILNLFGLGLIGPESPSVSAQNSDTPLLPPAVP
T2 sequence (Q92769 whole entry): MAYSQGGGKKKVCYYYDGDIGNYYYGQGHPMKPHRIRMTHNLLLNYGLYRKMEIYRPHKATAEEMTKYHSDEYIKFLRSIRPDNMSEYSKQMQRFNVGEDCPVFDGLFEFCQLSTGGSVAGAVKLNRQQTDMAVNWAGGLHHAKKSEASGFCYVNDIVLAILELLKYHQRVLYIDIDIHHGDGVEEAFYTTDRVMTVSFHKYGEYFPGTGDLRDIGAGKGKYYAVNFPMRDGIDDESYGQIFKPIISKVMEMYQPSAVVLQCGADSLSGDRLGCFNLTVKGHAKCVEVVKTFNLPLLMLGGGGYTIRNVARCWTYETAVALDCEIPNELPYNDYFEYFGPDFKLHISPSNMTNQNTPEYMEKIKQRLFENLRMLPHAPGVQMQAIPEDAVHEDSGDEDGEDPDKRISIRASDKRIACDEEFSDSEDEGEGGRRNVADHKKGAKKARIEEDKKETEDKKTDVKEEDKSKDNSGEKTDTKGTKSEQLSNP

Q: `CCC(C(=O)Nc1ncc(C(=O)NO)s1)c1ccc(OC)cc1` (racemic) [#1, N-hydroxy-2-(2-(4-methoxyphenyl)butanamido)thiazole-5-carboxamide] was tested. Which IC50 [1] did it give?
A: 68 nM

Q: What about the IC50 [2] of the same compound?
A: 79 nM

Q: And the IC50 [3]?
A: 398 nM

Q: What about the IC50 [4] of the same compound?
A: 120 nM

Q: And the IC50 [5]?
A: 65 nM

Q: What about the IC50 [6] of the same compound?
A: 490 nM

Q: And the IC50 [7]?
A: 169 nM

Q: What about the IC50 [8] of the same compound?
A: 229 nM

Q: And the IC50 [9]?
A: 76 nM

Q: What about the IC50 [10] of the same compound?
A: 105 nM

Q: What about the IC50 [11] of the same compound?
A: 33 nM

Q: And the IC50 [12]?
A: 113 nM

Q: And the IC50 [13]?
A: 126 nM

Q: And the IC50 [14]?
A: 62 nM

Q: What about the IC50 [15] of the same compound?
A: 10 nM

Q: And the IC50 [16]?
A: 16 nM

Q: And the IC50 [17]?
A: 311 nM

Q: What about the IC50 [18] of the same compound?
A: 158 nM

Q: What about the IC50 [19] of the same compound?
A: 288 nM

Q: What about the IC50 [20] of the same compound?
A: 269 nM

Q: Which results are given for `CC[C@H](C(=O)Nc1ncc(C(=O)NO)s1)c1ccc(OC)cc1` [#1a, (S)—N-hydroxy-2-(2-(4-methoxyphenyl)butanamido)thiazole-5-carboxamide]?
A: Fold (1b/1a) ([21]; ratio of IC50, HDAC11): 0.73; Fold (1b/1a) ([22]; ratio of IC50, HDAC2): 6.9; Fold (1b/1a) ([23]; ratio of IC50, HDAC8): 3.1; IC50 [1]: 60 nM; #1/#1a ([1]; ratio of IC50, MDA-MB-468): 1.13; #1b/#1a ([1]; ratio of IC50, MDA-MB-468): 9.17; IC50 [2]: 50 nM; #1/#1a ([2]; ratio of IC50, H460): 1.58; #1b/#1a ([2]; ratio of IC50, H460): 7.26; IC50 [3]: 113 nM; #1/#1a ([3]; ratio of IC50, RXF-393): 3.52; #1b/#1a ([3]; ratio of IC50, RXF-393): 7.82; IC50 [4]: 18 nM; #1/#1a ([4]; ratio of IC50, N87): 6.67; #1b/#1a ([4]; ratio of IC50, N87): 18.39; IC50 [5]: 35 nM; #1/#1a ([5]; ratio of IC50, OCI-Ly3): 1.86; #1b/#1a ([5]; ratio of IC50, OCI-Ly3): 4.86; IC50 [6]: 54 nM; #1/#1a ([6]; ratio of IC50, Hs852T): 9.07; #1b/#1a ([6]; ratio of IC50, Hs852T): 22.96; IC50 [7]: 89 nM; #1/#1a ([7]; ratio of IC50, MDA-MB-157): 1.9; #1b/#1a ([7]; ratio of IC50, MDA-MB-157): 6.27; IC50 [8]: 78 nM; #1/#1a ([8]; ratio of IC50, ACHN): 2.94; #1b/#1a ([8]; ratio of IC50, ACHN): 9.44; IC50 [9]: 47 nM; #1/#1a ([9]; ratio of IC50, H23): 1.62; #1b/#1a ([9]; ratio of IC50, H23): 9.02; IC50 [10]: 36 nM; #1/#1a ([10]; ratio of IC50, Raji): 2.92; #1b/#1a ([10]; ratio of IC50, Raji): 7.83; IC50 [11]: 12 nM; #1/#1a ([11]; ratio of IC50, MM1.S): 2.75; #1b/#1a ([11]; ratio of IC50, MM1.S): 5.92; IC50 [12]: 62 nM; #1/#1a ([12]; ratio of IC50, MDA-MB-231): 1.82; #1b/#1a ([12]; ratio of IC50, MDA-MB-231): 10.42; IC50 [13]: 55 nM; #1/#1a ([13]; ratio of IC50, SN12CCP): 2.29; #1b/#1a ([13]; ratio of IC50, SN12CCP): 7.45; IC50 [14]: 28 nM; #1/#1a ([14]; ratio of IC50, MOLM-13): 2.21; #1b/#1a ([14]; ratio of IC50, MOLM-13): 7.46; IC50 [15]: 40 nM; #1/#1a ([15]; ratio of IC50, FaDu): 0.25; #1b/#1a ([15]; ratio of IC50, FaDu): 8.28; IC50 [16]: 17 nM; #1/#1a ([16]; ratio of IC50, DOHH-2): 0.94; #1b/#1a ([16]; ratio of IC50, DOHH-2): 7.94; IC50 [17]: 307 nM; #1/#1a ([17]; ratio of IC50, SiHa): 1.01; #1b/#1a ([17]; ratio of IC50, SiHa): 8.91; IC50 [18]: 83 nM; #1/#1a ([18]; ratio of IC50, MeWo): 1.9; #1b/#1a ([18]; ratio of IC50, MeWo): 7.37; IC50 [19]: 85 nM; #1/#1a ([19]; ratio of IC50, OAW28): 3.39; #1b/#1a ([19]; ratio of IC50, OAW28): 6.61; IC50 [20]: 32 nM; #1/#1a ([20]; ratio of IC50, A375): 8.41; #1b/#1a ([20]; ratio of IC50, A375): 20.34

Q: For `CC[C@@H](C(=O)Nc1ncc(C(=O)NO)s1)c1ccc(OC)cc1` [#1b, (R)—N-hydroxy-2-(2-(4-methoxyphenyl)butanamido)thiazole-5-carboxamide], which IC50 ([21]; HDAC11) is on record?
A: 4220 nM

Q: And the IC50 ([22]; HDAC2)?
A: 36.5 nM

Q: And the IC50 ([23]; HDAC8)?
A: 416 nM

Q: What about the IC50 [1] of the same compound?
A: 550 nM

Q: And the IC50 [2]?
A: 363 nM

Q: What about the IC50 [3] of the same compound?
A: 884 nM

Q: What about the IC50 [4] of the same compound?
A: 331 nM

Q: And the IC50 [5]?
A: 170 nM

Q: And the IC50 [6]?
A: 1240 nM

Q: What about the IC50 [7] of the same compound?
A: 558 nM

Q: And the IC50 [8]?
A: 736 nM

Q: What about the IC50 [9] of the same compound?
A: 424 nM

Q: What about the IC50 [10] of the same compound?
A: 282 nM

Q: And the IC50 [11]?
A: 71 nM

Q: What about the IC50 [12] of the same compound?
A: 646 nM

Q: What about the IC50 [13] of the same compound?
A: 410 nM

Q: What about the IC50 [14] of the same compound?
A: 209 nM

Q: What about the IC50 [15] of the same compound?
A: 331 nM

Q: And the IC50 [16]?
A: 135 nM

Q: What about the IC50 [17] of the same compound?
A: 2740 nM

Q: What about the IC50 [18] of the same compound?
A: 612 nM

Q: And the IC50 [19]?
A: 562 nM

Q: What about the IC50 [20] of the same compound?
A: 651 nM

Reference: patent US11420947B2, “(S)-n-hydroxy-2-(2-(4-methoxyphenyl)butanamido)thiazole-5-carboxamide and pharmaceutically acceptable salts thereof” (TRANSLATIONAL DRUG DEVELOPMENT, LLC, priority 2018, dated 2022)
